Measurements as given in paper doi:10.1101/2024.12.09.627564, “Cannabinoid inhibition of mechanosensitive K^+ channels” (bioRxiv, 2024).

Biological target: T1, hsTRAAK (Homo sapiens, UniProt Q9NYG8)
T1 construct: expressed in transfected cells; host or cells: HEK293T
T1 sequence (Q9NYG8 1-393): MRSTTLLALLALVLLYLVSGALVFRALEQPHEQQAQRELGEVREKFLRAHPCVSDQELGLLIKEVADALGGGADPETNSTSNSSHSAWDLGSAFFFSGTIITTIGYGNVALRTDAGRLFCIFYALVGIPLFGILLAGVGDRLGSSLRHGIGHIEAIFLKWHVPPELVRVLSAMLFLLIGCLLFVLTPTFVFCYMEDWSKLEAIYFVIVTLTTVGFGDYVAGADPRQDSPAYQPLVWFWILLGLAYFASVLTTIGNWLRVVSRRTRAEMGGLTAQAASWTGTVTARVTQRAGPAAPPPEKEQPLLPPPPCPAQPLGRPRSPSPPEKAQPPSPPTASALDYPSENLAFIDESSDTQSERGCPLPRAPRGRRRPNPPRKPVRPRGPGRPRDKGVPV
Experiment: Whole-cell recordings of TRAAK in cultured HEK293T cells, extracellular CBD
Assay type: cell-based
Conditions: 1 and 10 μM CBD, 0 mV
Description: For patch clamp recording from cultured cells, drTREK-1 or hsTRAAK genes were cloned into a modified pCEH vector to generate C-terminally EGFP-tagged constructs. HEK293T were cultured in DMEM (Gibco, Thermo Fisher Scientific) with 10% FBS and 100 U ml−1 penicillin and 100 μg ml−1 streptomycin. Trypsinized cells were deposited on 12-mm glass coverslips in a six-well dish one to two days before transfection. For transfection, drTREK-1 or hsTRAAK plasmids were mixed with FuGENE 6 in OptiMEM at a 1:3 ratio with 1 μg DNA per well per construct and applied to cells in growth medium with antibiotics. Patching was conducted from 24 to 60 h post-transfection. Coverslips were placed in a perfusion chamber at room temperature in isotonic bath solution: 135 mM NaCl, 15 mM KCl, 1 mM CaCl2, 1 mM MgCl2, 10 mM HEPES, adjusted to a final pH of 7.5 with NaOH. Cells were chosen by a combination of the presence GFP fluorescence and cell morphology consistent with healthy interphase cells. […]
Patches were evaluated with voltage-step protocols to confirm TRAAK expression and minimal non-specific leak based on reversal potential. Currents were recorded using an Axopatch 200B amplifier (Molecular Devices) at a bandwidth of 1 kHz and digitized with an Digidata 1550B (Molecular Devices) at 100–500 kHz using pClamp10.7 software. […] Data were analyzed using Clampfit 10.7, Excel, and Graphpad Prism software. […]

C=C(C)[C@@H]1CCC(C)=C[C@H]1c1c(O)cc(CCCCC)cc1O [CBD, Cannabidiol]
inhibition of TRAAK by extracellular CBD: strongly inhibited
